Measured values published in patent publication US5480905A, “Benzodioxane derivatives” (Chugai Seiyaku Kabushiki Kaisha, priority 1991, dated 1996).
“Also recorded” adds a separate entry of the source. Counter-ions that a name gives are not always drawn. Like-named read-outs stand apart in the source and are kept apart here.

Tests used:
serotonin 1A receptor = target: T1, serotonin 1A receptor (Rattus norvegicus, UniProt P19327); experiment: Serotonin 1A receptor binding experiment (3H-8-OH-DPAT); details: rat cortex and hippocampal tissue, 0.5 nM 3H-8-OH-DPAT, IC50 in M
T1 construct: the cortex and hippocampal tissue were extracted from the brain; from tissue; host or cells: brain cortex and hippocampus of 7-week-old male S.D. rats, washed membrane homogenate
T1 sequence (P19327 1-422): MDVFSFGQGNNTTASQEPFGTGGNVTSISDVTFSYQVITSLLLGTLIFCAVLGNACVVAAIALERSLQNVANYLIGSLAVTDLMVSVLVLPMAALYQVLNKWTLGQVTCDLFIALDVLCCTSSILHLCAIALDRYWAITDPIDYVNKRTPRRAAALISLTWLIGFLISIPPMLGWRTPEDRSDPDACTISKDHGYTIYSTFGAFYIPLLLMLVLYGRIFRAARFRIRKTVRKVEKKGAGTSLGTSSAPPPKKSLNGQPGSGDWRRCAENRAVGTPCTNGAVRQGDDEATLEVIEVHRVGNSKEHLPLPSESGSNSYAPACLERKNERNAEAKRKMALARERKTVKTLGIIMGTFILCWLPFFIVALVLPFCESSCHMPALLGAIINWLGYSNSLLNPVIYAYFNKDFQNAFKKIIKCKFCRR
Experimental: (§1) Affinity for intracerebral serotonin 1A and serotonin 2 receptor was checked in accordance with the method of Hall et al. (J. Neurochem., 44, 1685-1695, 1985) and the method of Leysen et al. (Mol. Pharmacol., 21, 301-314, 1982).
(§2) Stated more specifically, the cortex and hippocampal tissue were extracted from the brain of 7-wk old S.D. line male rats, mixed with 20 volumes of Tris-HCl buffer (50 mM, pH 7.7) and homogenized with a Teflon homogenizer. Thereafter, the homogenate was centrifuged at 39800×g for 20 min and the supernatant was discarded. Forty volumes of a buffer were added to the precipitate and the mixture was homogenized with a Polytron homogenizer, with the homogenate being centrifuged under the same condition as set forth above. The same procedure was repeated two more times and the final precipitate was homogenized with 40 volumes of a buffer; thereafter, the homogenate was stored at least overnight at -80° C. On the day when binding experiments were to be conducted, the homogenate was thawed at room temperature and incubated at 37° C. for 20 min to remove the endogenous serotonin.
(§3) Thereafter, centrifugation was conducted at 39800×g for 20 min and 40 volumes of a buffer were added to the precipitate, followed by homogenization. This procedure was repeated three times; to the final precipitate, a buffer was added in 65 volumes for the case of serotonin 1A receptor and in 80 volumes for the case of serotonin 2 receptor and the mixture was homogenized in preparation for the binding experiments that are described below. All procedures of experimentation except storage in a frozen state and thawing at room temperature were conducted at 4° C. or below.
A reaction solution containing 0.5 nM (final concentration) of 3H-8-hydroxy-2-(di-n-propylamino)tetralin (8-OH-DPAT), […] and 500 μl of brain homogenate in 1.0 ml (final volume) of a buffer was incubated at 25° C. for 30 min. Thereafter, the reaction solution was filtered by rapid passage through a glass filler. The filter was washed rapidly with an ice-cooled buffer (3 ml) three times, put into a scintillation vial together with a scintillation cocktail, and left to stand overnight at 4° C. On the next day, the vial was agitated well and measurements were conducted with a scintillation counter. To determine the amount of specific binding, the amount of binding in the presence of excess unlabeled serotonin (10 μM) was subtracted from the total amount of binding. As an index for the affinity of a test compound for either receptor, the concentration at which the specific binding of ^3 H-DPAT was inhibited by 50% (IC50, M) was determined using computer software EBDA/LIGAND (Biosoft).

serotonin 2 receptor = target: T2, serotonin 2 receptor (Rattus norvegicus, UniProt P14842); experiment: Serotonin 2 receptor binding experiment (3H-ketancerine); details: rat cortex and hippocampal tissue; 0.5 nM 3H-ketancerine; IC50 in M; read-out: -logIC50 5-HT2 (converted)
T2 construct: the cortex and hippocampal tissue were extracted from the brain; from tissue; host or cells: brain cortex and hippocampus of 7-week-old male S.D. rats, washed membrane homogenate
T2 sequence (P14842 whole entry): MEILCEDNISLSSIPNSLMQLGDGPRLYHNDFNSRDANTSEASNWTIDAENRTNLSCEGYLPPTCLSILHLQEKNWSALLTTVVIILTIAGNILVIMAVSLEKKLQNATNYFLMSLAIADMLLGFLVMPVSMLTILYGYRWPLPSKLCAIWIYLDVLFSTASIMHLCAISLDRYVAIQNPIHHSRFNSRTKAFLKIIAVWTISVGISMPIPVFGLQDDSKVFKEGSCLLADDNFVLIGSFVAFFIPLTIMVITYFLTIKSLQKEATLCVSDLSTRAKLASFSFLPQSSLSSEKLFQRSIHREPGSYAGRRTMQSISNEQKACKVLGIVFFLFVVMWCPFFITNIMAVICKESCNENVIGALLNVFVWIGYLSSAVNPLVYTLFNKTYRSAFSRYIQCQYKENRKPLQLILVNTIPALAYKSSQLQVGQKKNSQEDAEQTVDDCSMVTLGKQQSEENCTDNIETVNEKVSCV
Experimental: as §1, §2, §3
A reaction solution containing 0.5 nM (final concentration) of ^3 H-ketancerine and 500 μl of brain homogenate in 1.0 ml (final volume) of a buffer was incubated at 30° C. for 30 min. Subsequent procedures were the same as in the serotonin 1A receptor binding experiment and IC50 (M) was determined accordingly. To determine the amount of specific binding, the amount of binding in the presence of excess unlabelled methysergide ([…]) was subtracted from the total amount of binding.

S.D. line male rats [1] = experiment: Sedative action, amount of spontaneous movement (Animex); assay type: in vivo, rat; details: for Amount of Spontaneous Movement: control 405.2 ± 47.7
Experimental: Seven-week old male S.D. line rats were administered a test drug perorally and after the passage of 30 min, the amount of spontaneous movement of the rats was measured for 10 min by means of Animex.

S.D. line male rats [2] = experiment: Antidepressant effect, compelled swim test (Porsolt), time over which rats remain motionless; assay type: in vivo, rat; design: Antidepressant effect / Antidepressant effect, longevity: scale not given here; details: for inhibition in vivo at 20 mg/kg: Rattus norvegicus, po, 0.5 h, 30 min before swim, read-out: Antidepressant effect, Efficacy
Experimental: An antidepression test was conducted in accordance with the method of Porsolt et al. (Europ. J. Pharmacol., 47, 379-391, 1978). Stated more specifically, 7-wk old S.D. line male rats were placed in a glass cylinder (18 cm^.phi. ×40 cm^H) for 15 min. The cylinder was filled with water (25° C.) to a depth of 15 cm. Thereafter, the rats were placed in a hot environment (32° C.) for 15 min before they were returned to the cage. Twenty-four hours later, the rats were compelled again to swim in the same cylinder for 5 min and the total time over which the rats remained motionless was measured. A test drug was administered perorally to each animal 30 min before it was compelled to swim for 5 min. Antidepressant agents are known to be capable of specifically reducing the time over which the rats would remain motionless (Psyehopharmaeol., 83, 1-16, 1984, and ibid., 94, 147-160, 1988). The antidepressant effect was calculated by the following formula: [formula]
(§4) The procedure of Test Examples 2 and 3 were repeated except that test compounds were administered perorally in a dose of 10 mg/kg.
(§5) The procedures of Test Example 2 and 3 were repeated, except that test compounds were administered perorally in a dose of 20 mg/kg to check the longevity of their antianxiety and antidepressant effects for 0.5, 2 and 4 h.

S.D. line male rats [3] = experiment: Antianxiety effect, water drinking under punishment (Vogel); assay type: in vivo, rat; design: Antianxiety effect / Antianxiety effect, longevity: unit not given here; details: for change in vivo at 20 mg/kg: Rattus norvegicus, po, read-out: Antianxiety effect, Efficacy
Experimental: Antianxiety test was conducted in accordance with a method adapted from the method of Vogel et al. (Psychopharmacol., 21, 1-7, 1971). Stated more specifically, S.D. line male rats weighing 250-300 g were entirely kept from water for 24 h and then placed in a concrete experimental box. […] The bottom of the box was made of a stainless steel grid, from which electric shock (0.2 mA, 0.5 sec) could be applied to the limbs of rats. The test schedule was as follows: first, the rats were acclimatized to the experimental box and trained for drinking water; this was done for 3 min without electric shock. The quantity of water drunk by the rats was then measured (under non-punishment). Then, the rats were kept from drinking water for 24 h. Thereafter, the quantity of water drunk by each rat was measured (before administration of test compound) under such conditions that an electric shock was applied each time a rat drank one water drop (under punishment).Thirty minutes later, a test drug was administered perorally and after an additional 20 min, the quantity of water drunk by each rat was again measured under punishment (after administration of test compound). The quantity of water drunk by rats will decrease under punishment but it is known that the initial level can be restored by administering an antianxiety agent.
The antianxiety effect of a test compound was calculated by the following formula: [formula]
as §4, §5

[4] = in vivo; cited from earlier work
[5] = system: apomorphine induced stereotypic behavior; experiment: Antidopamine action, apomorphine induced stereotypic behavior; assay type: in vivo, rat; details: for Apomorphine Induced Stereotypic Behavior, sum of scores: maximum of 24
Experimental: Seven-week old male S.D. line rats were administered a test drug perorally and after the passage of 30 min, the dopamine agonist apomorphine was injected subcutaneously in an amount of 0.5 mg/kg. For the subsequent 5-30 min period, the intensity of stereotypic behavior that was induced in the rats by apomorphine was measured six times at 5-min intervals by a scoring method and the sum of the scores was determined (for a maximum of 24).

[6] = read-out: -logIC50 5-HT1A (converted)
[7] = peroral 20 mg/kg, 0.5 h after administration
[8] = peroral 20 mg/kg, 2.0 h after administration
[9] = peroral 20 mg/kg, 4.0 h after administration

| Compound | IC50 (serotonin 1A receptor; [6]) [nM] | IC50 (serotonin 2 receptor) [nM] | inhibition in vivo at 20 mg/kg (S.D. line male rats [2]; peroral 20 mg/kg) [%] | Antidepressant effect (S.D. line male rats [2]; peroral 20 mg/kg) | change in vivo at 20 mg/kg (S.D. line male rats [3]; peroral 20 mg/kg) [%] | Antianxiety effect (S.D. line male rats [3]; peroral 20 mg/kg) | other results |
| --- | --- | --- | --- | --- | --- | --- | --- |
| O=C1CC2(CCCC2)CC(=O)N1CCNCC1COc2ccccc2O1 (stereo not shown) [MDL-73005, reference compound] | 36.3 | > 1000 | 28.3 ± 10.9 | extremely weak antidepressant effect | 67.6 ± 5.5 | – | Amount of Spontaneous Movement (S.D. line male rats [1]; 20 mg/kg peroral): 395.8 Counts/10 min; Amount of Spontaneous Movement (S.D. line male rats [1]; 40 mg/kg peroral): 331.5 Counts/10 min; Amount of Spontaneous Movement (S.D. line male rats [1]; 60 mg/kg peroral): 335.0 Counts/10 min; Sedative action / spontaneous movement (S.D. line male rats [1]; peroral 20-60 mg/kg): no appreciable sedative action; Antianxiety effect, longevity (S.D. line male rats [3]; [7]): 44.9; Antianxiety effect, longevity (S.D. line male rats [3]; [8]): 17.0; Antianxiety effect, longevity (S.D. line male rats [3]; [9]): 8.1 |
| Cc1cccc2c1OC(CNCCNC(=O)C13CC4CC(CC(C4)C1)C3)CO2 (single isomer, unassigned; (-)) [Compound 7, (-)-N-{[2-(8-methyl-1,4-benzodioxan-2ylmethyl)amino]ethyl}tricyclo[3,3,1^3, ^7]decane-1carboxyamide hydrochloride] | 0.316 | 15.8 | – | – | – | – | Antidepressant effect (S.D. line male rats [2]; peroral 10 mg/kg): 62.7 ± 12.4; Antidepressant effect, longevity (S.D. line male rats [2]; [7]): 72.1; Antidepressant effect, longevity (S.D. line male rats [2]; [8]): 76.9; Antidepressant effect, longevity (S.D. line male rats [2]; [9]): 38.1; Antianxiety effect (S.D. line male rats [3]; peroral 10 mg/kg): 45.4 ± 3.4; Antianxiety and antidepressant effects (S.D. line male rats [3]; peroral 10 mg/kg, Table 6): superiority; Antianxiety effect, longevity (S.D. line male rats [3]; [7]): 66.0; Antianxiety effect, longevity (S.D. line male rats [3]; [8]): 51.6; Antianxiety effect, longevity (S.D. line male rats [3]; [9]): 26.1 |
| O=C(NCCNCC1COc2ccccc2O1)C12CC3CC(CC(C3)C1)C2 (stereo not shown) [Compound 2, N-{[2-(1,4-benzodioxan-2-ylmethyl)amino]ethyl}tricyclo[3,3,1,1^3, ^7]decane-1-carboxyamide] | 302 | 35.5 | 85 ± 8.5 | better antidepressant effects than WY-50324 | 39.3 ± 10.8 | almost comparable effects to WY-50324 | – |
| O=C(NCCNCC1COc2ccc(Cl)cc2O1)C12CC3CC(CC(C3)C1)C2 (stereo not shown) [Compound 4, N-{[2-(7-chloro-1,4-benzodioxan-2ylmethyl)amino]ethyl}tricyclo[3,3,1,1^3, ^7]decane-1-carboxyamide] | 5.13 | 42.7 | 51.9 ± 8.2 | almost comparable effects to WY-50324 | 76.8 ± 13.7 | comparable effects to MDL-73005 | – |
| CC1(C)CC(=O)N(CCCCN2CCN(c3ncccn3)CC2)C(=O)C1 [Gepirone] | – | – | – | – | – | – | Antianxiety/antidepressant action (words, background) [4]: only weak antidepressant and antianxiety effects; also recorded: both antianxiety and antidepressant effects; Side effects (words, background) [4]: either lower ultromotivity (probably due to the dopamine antagonistic action) or serotonin syndrome |
| O=C1CC2(CCCC2)CC(=O)N1CCCCN1CCN(c2ncccn2)CC1 [Buspirone] | – | – | -25.2 ± 3.9 | – | 37.5 ± 4.7 | – | Apomorphine Induced Stereotypic Behavior, sum of scores ([5]; 10 mg/kg peroral, control 14.4 ± 0.9): 10.3; Apomorphine Induced Stereotypic Behavior, sum of scores ([5]; 20 mg/kg peroral, control 14.4 ± 0.9 (Comp. 1: 16.0 ± 1.1)): 0.7; Apomorphine Induced Stereotypic Behavior, sum of scores ([5]; 40 mg/kg peroral, control 14.4 ± 0.9): 0.2; Antidopamine action ([5]; peroral, apomorphine 0.5 mg/kg s.c.): stereotypic behavior induced by apomorphine was intensely compelled |
| O=C(NCCNCC1COc2cccc(O)c2O1)C12CC3CC(CC(C3)C1)C2 (stereo not shown) [Compound 18, N-{[2-(8-hydroxy-1,4-benzodioxan-2ylmethyl)amino]ethyl}tricyclo[^3,3,1,1^3, ^7]decane-1-carboxyamide] | 0.158 | 50.1 | 78.5 ± 4.5 | better antidepressant effects than WY-50324 | 80.1 ± 6.1 | better effects than MDL-73005 | – |
| COc1cccc2c1OCC(CNCCNC(=O)C13CC4CC(CC(C4)C1)C3)O2 (stereo not shown) [Compound 6, N-{[2-(5-methoxy-1,4-benzodioxan-2-ylmethyl)amino]ethyl}tricyclo[3,3,1^3, ^7]decane-1-carboxyamide] | 4.07 | 75.9 | 82.2 ± 6.6 | better antidepressant effects than WY-50324 | 28.7 ± 9.5 | – | – |
| O=C1C2C3CCC(C3)C2C(=O)N1CCCCN1CCN(c2ncccn2)CC1 (stereo not shown) [SM-3997, reference compound] | – | 550 | -10.5 ± 10.6 | – | 48.5 ± 15.8 | – | IC50 (serotonin 1A receptor; -logIC50 5-HT1A): 31.6 nM |
